Where two headings read alike, the source gives them in different places.
Legend:
intracellular HBV DNA = experiment: Real-time PCR for intracellular HBV DNA in HepAD38 cells; format: cell-based, hepatitis B virus (HBV); conditions: Hepatitis B virus, HePAD38, 65 h, treated for 65 hours, intracellular HBV DNA by real-time PCR
Description: HepAD38 cells were cultured in DMEM medium (Welgene) supplemented with 200 unit/mL penicillin, 200 μg/mL streptomycin, and 10% FBS. During maintenance and passage, the cells were cultured together with 0.4 μg/mL tetracycline. Two days before the treatment with compounds for inducing HBV replication was started, the medium was replaced with a tetracycline-free complete growth medium. […]
HepAD38 cells were treated with a compound for 65 hours and then recovered, and intracellular HBV DNA was extracted therefrom according to the protocol in the DNeasy Blood & Tissue Kit (Qiagen). The primers and probes used to quantify HBV DNA were 5′-[…]-3′, 5′-[…]-3′, and 5′-/56-FAM/TGT CCT GGT/ZEN/[…]/3IABKFQ/-3′. The HBV DNA was amplified by real-time PCR assay using LightCycler 480 (Roche) (J. Virol., 2018, 92(16):e00339-18). All of the processes were confirmed in duplicate.

[1] = target: Protein (capsid assembly) (Hepatitis B virus genotype D subtype ayw, UniProt P03146); experiment: Protein inhibition (capsid assembly inhibition), Table 1; format: biochemical; conditions: for EC50: NVR value of the same run in brackets, read-out: Protein EC50
Sequence of Protein (capsid assembly) (P03146 whole entry): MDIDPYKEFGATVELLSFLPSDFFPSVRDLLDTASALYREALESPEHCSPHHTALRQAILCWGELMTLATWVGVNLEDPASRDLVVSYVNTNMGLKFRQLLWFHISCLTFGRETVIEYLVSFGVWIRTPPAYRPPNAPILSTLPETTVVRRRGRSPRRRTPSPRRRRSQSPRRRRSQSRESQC

[2] = Cell viability assay (EZ-Cytox) in HepAD38 cells; format: cell-based; conditions: human, 65 hours of treatment; for CC50 at 65 h: read-out: Cytotoxicity CC50; for viability at 65 h, 100 µM: read-out: Cytotoxicity % Livability (@100 μM)
Description: HepAD38 cells were cultured for 2 days in Dulbecco's Modified Eagle's medium (Welgene, LM001-05) supplemented with 10% FBS without tetracycline. The cells were seeded in 48-well culture plates (1×10^5 cells/well) and treated with each compound at five concentrations (0 μM (0.8% DMSO as a control), 33 μM, 50 μM, 66 μM, and 100 μM). After 65 hours of treatment, viability was measured using EZ-Cytox cell viability assay kit (Daeil Lab Service) according to the manufacturer's instructions. The absorbance was measured at 450 nm using a spectrophotometer (Spark, Tecan). Here, NVR-3-778 (denoted as NVR) was used as a positive control.

[3] = @30 μM, read-out: Protein % inhibition rate (@30 μM)

| Compound | IC50 (intracellular HBV DNA) [nM] | inhibition at 30 µM [1, 3] [%] | EC50 [1] [nM] | CC50 at 65 h [2] [µM] | viability at 65 h, 100 µM [2] [%] | Protein % inhibition rate (@30 μM) ([1]; @30 μM) [%] | inhibition at 30 µM ([1]; read-out: Protein % inhibition rate (@30 μM), @30 μM) [%] |
| --- | --- | --- | --- | --- | --- | --- | --- |
| CC(c1nnc2n1CCOCC2)N(C(=O)Nc1ccc(F)c(Cl)c1)c1ccc2c(c1)OCO2 (centres unmarked) [Example 33, 1-(Benzo[d][1,3]dioxol-5-yl)-3-(3-chloro-4-fluorophenyl)-1-(1-(5,6,8,9-tetrahydro-[1,2,4]triazolo[4,3-d][1,4]oxazepin-3-yl)ethyl)urea] | 360 | 26 | 4300 | > 100 | 88.3 | – | – |
| COc1ccc(N(Cc2nnc(C(F)(F)F)n2C)C(=O)Nc2ccc(F)c(Cl)c2)cn1 [Example 49, 3-(3-Chloro-4-fluorophenyl)-1-(6-methoxypyridin-3-yl)-1-((4-methyl-5-(trifluoromethyl)-4H-1,2,4-triazol-3-yl)methyl)urea] | 438 | – | – | > 100 | 55.9 | – | – |
| COc1ccc(N(Cc2nnc3n2CCOCC3)C(=O)Nc2ccc(F)c(Cl)c2)cc1 [Example 27, 3-(3-Chloro-4-fluorophenyl)-1-(4-methoxyphenyl)-1-((5,6,8,9-tetrahydro-[1,2,4]triazolo[4,3-d][1,4]oxazepin-3-yl)methyl)urea] | 32 | 65 | 2300 | > 100 | 91 | – | – |
| O=C(Nc1ccc(F)c(Cl)c1)N(Cc1nnc2n1CCCCC2)c1ccc(C(F)(F)F)cc1 [Example 13, 3-(3-Chloro-4-fluorophenyl)-1-((6,7,8,9-tetrahydro-5H-[1,2,4]triazolo[4,3-a]azepin-3-yl)methyl)-1-(4-(trifluoromethyl)phenyl)urea] | 230 | 89 | 5000 | > 100 | 106 | – | – |
| O=C(Nc1ccc(F)c(Cl)c1)N(Cc1nnc2n1CCOC2)c1ccc2c(c1)OCO2 [Example 42, 1-(Benzo[d][1,3]dioxol-5-yl)-3-(3-chloro-4-fluorophenyl)-1-((6,8-dihydro-5H-[1,2,4]triazolo[3,4-c][1,4]oxazin-3-yl)methyl)urea] | 210 | – | 6800 | > 100 | 83.7 | 20 | – |
| COc1cc(N(Cc2nnc3n2CCOCC3)C(=O)Nc2ccc(F)c(Cl)c2)ccn1 [Example 47, 3-(3-Chloro-4-fluorophenyl)-1-(2-methoxypyridin-4-yl)-1-((5,6,8,9-tetrahydro-[1,2,4]triazolo[4,3-d][1,4]oxazepin-3-yl)methyl)urea] | 92 | – | – | > 100 | 81.2 | – | – |
| N#Cc1cccc(NC(=O)N(Cc2nnc3n2CCCCC3)c2ccc3c(c2)OCO3)c1 [Example 8, 1-(Benzo[d][1,3]dioxol-5-yl)-3-(3-cyanophenyl)-1-((6,7,8,9-tetrahydro-5H-[1,2,4]triazolo[4,3-a]azepin-3-yl)methyl)urea] | 270 | 83 | 1800 | > 100 | 91.6 | – | – |
| COc1ccc(N(Cc2nnc3n2CCCCC3)C(=O)Nc2ccc(F)c(Cl)c2)cc1 [Example 3, 3-(3-Chloro-4-fluorophenyl)-1-(4-methoxyphenyl)-1-((6,7,8,9-tetrahydro-5H-[1,2,4]triazolo[4,3-a]azepin-3-yl)methyl)urea] | 190 | 89 | 1600 | > 100 | 91.9 | – | – |
| COc1ccc(N(Cc2nnc3n2CCCC3)C(=O)Nc2ccc(F)c(Cl)c2)cc1 [Example 43, 3-(3-Chloro-4-fluorophenyl)-1-(4-methoxyphenyl)-1-((5,6,7,8-tetrahydro-[1,2,4]triazolo[4,3-a]pyridin-3-yl)methyl)urea] | 790 | 96.2 | 3300 | > 100 | 103 | – | – |
| COCCn1c(CN(C(=O)Nc2ccc(F)c(Cl)c2)c2ccc(OC)nc2)nnc1C(F)(F)F [Example 52, 3-(3-Chloro-4-fluorophenyl)-1-((4-(2-methoxyethyl)-5-(trifluoromethyl)-4H-1,2,4-triazol-3-yl)methyl)-1-(6-methoxypyridin-3-yl)urea] | > 1100 | – | – | > 100 | 55.4 | – | – |
| COc1ccc(N(Cc2nnc3n2CCCCC3)C(=O)Nc2ccc(F)c(Cl)c2)cn1 [Example 44, 3-(3-Chloro-4-fluorophenyl)-1-(6-methoxypyridin-3-yl)-1-((6,7,8,9-tetrahydro-5H-[1,2,4]triazolo[4,3-a]azepin-3-yl)methyl)urea] | 50 | 82 | 1400 | > 100 | 103 | – | – |
| CC(C)Oc1ccc(N(Cc2nnc3n2CCCCC3)C(=O)Nc2ccc(F)c(Cl)c2)cc1 [Example 12, 3-(3-Chloro-4-fluorophenyl)-1-(4-isopropoxyphenyl)-1-((6,7,8,9-tetrahydro-5H-[1,2,4]triazolo[4,3-a]azepin-3-yl)methyl)urea] | 110 | 95 | 2500 | > 100 | 93.2 | – | – |
| COc1ccc(N(Cc2nnc(-c3ccccc3)n2C)C(=O)Nc2ccc(F)c(Cl)c2)cc1 [Example 24, 3-(3-Chloro-4-fluorophenyl)-1-(4-methoxyphenyl)-1-((4-methyl-5-phenyl-4H-1,2,4-triazol-3-yl)methyl)urea] | > 3300 | -1 | – | > 100 | – | – | – |
| O=C(Nc1ccc(F)c(Cl)c1)N(Cc1nnc2n1CCCCC2)c1ccc2c(c1)OCO2 [Example 2, 1-(Benzo[d][1,3]dioxol-5-yl)-3-(3-chloro-4-fluorophenyl)-1-((6,7,8,9-tetrahydro-5H-[1,2,4]triazolo[4,3-a]azepin-3-yl)methyl)urea] | 40 | 81 | – | > 100 | 100 | – | – |
| COc1ccc(N(Cc2nnc(C(F)F)n2CCO)C(=O)Nc2ccc(F)c(Cl)c2)cn1 [Example 53, 3-(3-Chloro-4-fluorophenyl)-1-((5-(difluoromethyl)-4-(2-hydroxyethyl)-4H-1,2,4-triazol-3-yl)methyl)-1-(6-methoxypyridin-3-yl)urea] | > 1100 | – | – | > 100 | 99.1 | – | – |
| COc1ccc(N(Cc2nnc(C)n2C(C)C)C(=O)Nc2ccc(F)c(Cl)c2)cc1 [Example 26, 3-(3-Chloro-4-fluorophenyl)-1-((4-isopropyl-5-methyl-4H-1,2,4-triazol-3-yl)methyl)-1-(4-methoxyphenyl)urea] | 184 | – | 6200 | > 100 | 91.5 | – | 2 |
| COc1ccc(N(Cc2nnc(C(F)F)n2C)C(=O)Nc2ccc(F)c(Cl)c2)cn1 [Example 48, 3-(3-Chloro-4-fluorophenyl)-1-((5-(difluoromethyl)-4-methyl-4H-1,2,4-triazol-3-yl)methyl)-1-(6-methoxypyridin-3-yl)urea] | > 1100 | – | – | > 100 | 102 | – | – |
| O=C(Nc1ccc(F)c(Cl)c1)N(Cc1nnc2n1CCCCC2)c1ccc2ncsc2c1 [Example 16, 1-(Benzo[d]thiazol-6-yl)-3-(3-chloro-4-fluorophenyl)-1-((6,7,8,9-tetrahydro-5H-[1,2,4]triazolo[4,3-a]azepin-3-yl)methyl)urea] | 124 | 80.9 | 2200 | > 100 | 93.9 | – | – |
| COc1ccc(N(Cc2nnc(C(F)(F)F)n2CCO)C(=O)Nc2ccc(F)c(Cl)c2)cn1 [Example 50, 3-(3-Chloro-4-fluorophenyl)-1-((4-(2-hydroxyethyl)-5-(trifluoromethyl)-4H-1,2,4-triazol-3-yl)methyl)-1-(6-methoxypyridin-3-yl)urea] | > 1100 | – | – | > 100 | 101 | – | – |
| O=C(Nc1ccc(F)c(Cl)c1)N(Cc1nnc2n1CCOCC2)c1ccnc(O)c1 [Example 46, 3-(3-chloro-4-fluorophenyl)-1-(2-hydroxypyridin-4-yl)-1-((5,6,8,9-tetrahydro-[1,2,4]triazolo[4,3-d][1,4]oxazepin-3-yl)methyl)urea] | > 1100 | – | – | > 100 | 90.5 | – | – |
| COCCn1c(CN(C(=O)Nc2ccc(F)c(Cl)c2)c2ccc(OC)nc2)nnc1C(F)F [Example 51, 3-(3-Chloro-4-fluorophenyl)-1-((5-(difluoromethyl)-4-(2-methoxyethyl)-4H-1,2,4-triazol-3-yl)methyl)-1-(6-methoxypyridin-3-yl)urea] | > 1100 | – | – | > 100 | 84.2 | – | – |
